This is an account of results in patent US8592449B1, “Radiolabelled phenylimidazole-based ligands” (H. Lundbeck A/S, priority 2010, dated 2013).

The data set has as its system PDE10A. The following applies: monkey, PET. As for the experimental part:
The monkey is sedated with ketamin (approximately 10 mg/kg), weighed, and maintained on a constant infusion of ketamin 15 mg/kg/h during transport. During transport the monkey is monitored by pulse oximetry and supported by oxygen. One venous catheter is applied for tracer administration and one venous catheter for blood radioactivity and PK sampling. Propofol is administered until the animal is anesthetized enough to intubate. After intubation the animal is maintained on sevoflurane inhalation anesthesia and artificial ventilation.
Blood samples (0.2 mL for radioactivity determination are taken at 0.5, 1, 3, 5, 10, 15, 20, 30, 45, 60 and 90 minutes after injection. The samples are labeled with time, date, sampling time in relation to injection, and project number.
PET scanning and arterial blood sampling is commenced upon start of the administration of the radiolabelled compound.

As for `Cc1ccc(C)n2nc(CCc3nc(-c4ccccc4)cn3[11CH3])nc12` [[11C]Lu AE92686, 5,8-dimethyl-2-[2-([^11C-1-methyl]-4-phenyl-1H-imidazol-2-yl)-ethyl]-[1,2,4]triazolo[1,5-a]pyridine], where the note is “cerebellum (very low level of PDE10A)”, the concentration in cerebellum result was “low”. For the setting “striatum versus other brain regions”, the “uptake and retention in striatum” value is “highest uptake and retention”. The brain entry result (i.v. bolus) is listed as “readily enters the brain”. Under “i.v. bolus, post injection”, the “time of peak regional tissue concentrations in brain” value is 10 to 15 min.
